In patent US20250281461A1 (The Board of Supervisors of Louisiana State University and …, priority 2021, published 2025):
“And” between values parts separate entries of the source, which are not always exact repeats. Identical values can stand only once.

Assays:
[1] = system: SARS-COV-2 virus (USA WA1/2020); assay: ACE2 mouse model, lung tissue RT-qPCR viral titer; type: in vivo; conditions: K18-hACE2 mice; for Lung Tissue RT-qPCR Viral Titer Log10, Group Mean: Day 6, 7 animals
[2] = system: SARS-COV-2 virus (USA WA1/2020); assay: ACE2 mouse model, TCID50 analysis of lung samples; type: in vivo; conditions: K18-hACE2 mice, Day 6 lung; for Titer, TCID50 analysis of lung samples, Group Mean: 7 animals; for Titer, TCID50 analysis of lung samples, individual animals: scored on Vero C1008 (E6) cells after 120 hours
Calu-3 = assay: Cytotoxicity of Imatinib in Calu-3 cells; conditions: any concentration tested (up to 100 μM)
[3] = system: SARS-COV-2 (USA-WA1/2020 Isolate); type: cell-based; conditions: Calu-3 cells, Mebendazole 2.3 nM-5000 nM
[4] = system: human lung cancer (Calu-3) cells
[5] = cited from earlier work
in vitro = conditions: human
[6] = pre-clinical models, oral administration; cited from earlier work
[7] = Day 6, 50 mg/kg/day Mebendazole and/or 100 mg/kg/day Imatinib, oral gavage once daily

Row | Compound | Lung Tissue RT-qPCR Viral Titer Log10, Group Mean [1] | Lung Tissue RT-qPCR Viral Titer Log10, individual animals [1, 7] | Lung Tissue RT-qPCR Viral Titer, individual animals [1, 7] | Titer, TCID50 analysis of lung samples, Group Mean [2] [Log10 TCID50/mL] | Titer, TCID50 analysis of lung samples, individual animals [2] | cytotoxicity (Vero 76 cells) | cytotoxicity (Calu-3) | Inhibition of SARS-COV-2 (maximum reached) [3] [%] | inhibition of cell viability ([4]; all tested concentrations up to 5000 nM) [%] | CC50 ([4]; read-out: CC50 (cytotoxic concentration), estimated from absence of cytotoxicity up to 5000 nM) [µM] | plasma concentrations ([5]; 100 mg twice daily for three consecutive days) | higher exposure to steady-state ([5]; long-term oral administration) [fold] | oral dose excreted in urine ([5]; oral dose) [%] | oral bioavailability ([5]; reported) [%] | CC50 (in vitro) [µM] | bioavailability [6]
1 | Cc1ccc(NC(=O)c2ccc(CN3CCN(C)CC3)cc2)cc1Nc1nccc(-c2cccnc2)n1 [Imatinib] | 7.8 | 7.9 (2×) and 8.0 and 7.3 and 8.5 and 7.6 and 7.7 | 7.80E+07 and 9.13E+07 and 2.15E+07 and 7.53E+07 and 3.12E+08 and 3.67E+07 and 5.37E+07 | 7.4 | 8.0 Log10 TCID50/mL and 6.5 Log10 TCID50/mL and 8.3 Log10 TCID50/mL and 7.5 Log10 TCID50/mL and 5.3 Log10 TCID50/mL and 7.6 Log10 TCID50/mL and 8.5 Log10 TCID50/mL | no cytotoxicity was observed | no cytotoxicity was observed |  |  |  |  |  |  |  |  | 
2 | COC(=O)Nc1nc2ccc(C(=O)c3ccccc3)cc2[nH]1 [Mebendazole] | 7.6 |  |  | 5.8 | 6.0 Log10 TCID50/mL and 5.3 Log10 TCID50/mL (2×) and 4.8 Log10 TCID50/mL and 5.5 Log10 TCID50/mL and 7.3 Log10 TCID50/mL and 6.5 Log10 TCID50/mL |  |  | 100 | ~0 | > 5 | ≤ 0.03 μg/mL and ≤ 0.1 μM | ~3 | < 2 | 17 | > 5 | about 15%
